Source: US20060154252A1, “Methods and composition for identifying therapeutic agents of atherosclerotic plaque lesions” (priority 2002, published 2006)
“Also recorded” adds a separate entry of the source.

Tested on: Differentiated-THP-1
Experiment: Vesicle formation in the presence of fatty acids (Nile Red staining)
Assay type: cell-based
Conditions: 200 μM albumin-coupled fatty acid, 24 hours, differentiated macrophage permanent cell line
Method: Fatty acids can be prepared according to Spector A A and Hoak J C, (1969 Anal. Biochem, 32: 297-302): Breifly, 100 μmol of fatty acid (12:0, 16:0, 18:0 and 20:0) can be dissolved in 7.5 ml of hexane containing 400 mg of Celite (Sigma). The solvent is then evaporated under nitrogen by continuous magnetic stirring. The fatty acid-coated particles are then mixed with fatty acid free albumin, in serum free medium for 1 hour at room temperature under nitrogen. After centrifugation, the supernatnts containing fatty acid coupled to albumin is conserved.
Vesicle formation in the presence of fatty acids was induced as follows: briefly, THP1 differentiation was induced in a medium supplemented with 10^−7 M of phorbol 12-myristate-13-acetate (Sigma) for 24 hours at 37° C., 5% CO2. Differentiated-THP-1 was incubated with or without 200 μM of fatty acid-BSA complexes for 24 hours at 37° C., 5% CO2. After washing and paraformaldhehyde fixation, cells were stained with Nile Red (1 μg/ml) and Hoechst 33342 (10 μg/ml) solution for 10 minutes at RT. After washing, images of cells staining with Nile Red and Hoechst 33342 were automatized captured using a fluorescence microscope controlled by MetaMorph Software (Universal Imaging) and coupled with a CCD camera. After images analysis, results were expressed as the sum of Nile red intensity per cells number.

In the case of CCCCCCCCCCCCCCCCCC(=O)O [stearic acid], the “induction of lipid vesicles / foam cell formation (FIG. 9)” value is reported as “Formation of foam cells; also recorded: induction of lipid vesicles”.
